Data as given in publication PMC9636582 (The Journal of Biological Chemistry, 2022).

Assays:
GAL4-PPARδ LBD = target: T1, GAL4-PPARδ LBD (Homo sapiens, UniProt Q03181); assay: GAL4-PPARδ LBD luciferase reporter assay in HEK293 cells; format: cell-based; conditions: for PPARδ activation (in words): 100 μM fatty acids, Fig. 1B
T1 construct: chimeric receptors containing the LBD of various NRs; expressed in transfected cells; host or cells: HEK293
T1 sequence (Q03181 211-439 limits assumed): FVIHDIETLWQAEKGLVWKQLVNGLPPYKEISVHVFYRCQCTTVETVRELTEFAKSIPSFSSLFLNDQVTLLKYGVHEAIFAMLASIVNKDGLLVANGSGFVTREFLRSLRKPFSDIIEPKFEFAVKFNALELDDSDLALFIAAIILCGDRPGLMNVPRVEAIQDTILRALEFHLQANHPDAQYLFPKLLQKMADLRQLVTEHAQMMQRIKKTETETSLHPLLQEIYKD

GAL4-PPARα LBD = target: T2, GAL4-PPARα LBD (Homo sapiens, UniProt Q07869); assay: GAL4-PPARα LBD luciferase reporter assay in HEK293 cells; format: cell-based; conditions: for ligand-induced activation of PPARα (in words): 100 μM fatty acids, Fig. 1B
T2 construct: chimeric receptors containing the LBD of various NRs; expressed in transfected cells; host or cells: HEK293
T2 sequence (Q07869 239-466 limits assumed): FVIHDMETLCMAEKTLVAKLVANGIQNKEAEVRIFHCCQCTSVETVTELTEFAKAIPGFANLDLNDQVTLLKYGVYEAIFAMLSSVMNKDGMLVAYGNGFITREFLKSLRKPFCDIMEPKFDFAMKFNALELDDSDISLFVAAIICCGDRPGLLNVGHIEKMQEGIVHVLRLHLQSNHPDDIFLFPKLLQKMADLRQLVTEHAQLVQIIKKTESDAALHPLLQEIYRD

full-length PPARδ = target: T3, full-length PPARδ (Homo sapiens, UniProt Q03181); assay: full-length PPARδ PPRE luciferase reporter assay in HEK293 cells; format: cell-based; conditions: Fig. 1C
T3 construct: expressed in transfected cells; host or cells: HEK293
T3 sequence (Q03181 1-441): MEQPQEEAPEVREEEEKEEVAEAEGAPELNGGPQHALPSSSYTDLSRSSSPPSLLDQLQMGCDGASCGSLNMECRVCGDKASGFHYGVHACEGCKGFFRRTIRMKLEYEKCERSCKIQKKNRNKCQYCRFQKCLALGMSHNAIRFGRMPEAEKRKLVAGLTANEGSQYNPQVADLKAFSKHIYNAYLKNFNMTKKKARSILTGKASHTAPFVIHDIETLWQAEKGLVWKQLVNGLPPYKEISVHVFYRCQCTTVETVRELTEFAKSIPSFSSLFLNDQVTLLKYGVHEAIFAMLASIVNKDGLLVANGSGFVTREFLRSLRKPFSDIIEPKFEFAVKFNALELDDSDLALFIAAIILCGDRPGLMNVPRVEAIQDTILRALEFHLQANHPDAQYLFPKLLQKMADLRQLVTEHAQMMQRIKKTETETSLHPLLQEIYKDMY
Text: Luciferase activities were normalized to β-galactosidase activities.

VP16-PPARδ / GAL4-SRC-1 = target: T4, VP16-PPARδ / GAL4-SRC-1 (Homo sapiens, UniProt Q03181); assay: mammalian two-hybrid assay, VP16-PPARδ and coactivator GAL4-SRC-1; format: cell-based; conditions: 30 μM fatty acids, 100 nM GW1516, HEK293 cells, Fig. 3A
T4 construct: expressed in transfected cells; host or cells: HEK293
T4 sequence (Q03181 1-441): T3 sequence (Q03181 1-441)
T4 sequence (Q15788 595-771 partner limits assumed): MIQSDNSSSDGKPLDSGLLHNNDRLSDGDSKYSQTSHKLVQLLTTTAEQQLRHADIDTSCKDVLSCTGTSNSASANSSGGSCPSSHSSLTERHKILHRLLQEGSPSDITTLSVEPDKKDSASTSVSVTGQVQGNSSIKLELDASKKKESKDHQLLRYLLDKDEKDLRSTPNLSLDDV

VP16-PPARα / GAL4-SRC-1 = target: T5, VP16-PPARα / GAL4-SRC-1 (Homo sapiens, UniProt Q07869); assay: mammalian two-hybrid assay, VP16-PPARα and coactivator GAL4-SRC-1; format: cell-based; conditions: 30 μM fatty acids, 1 μM GW7647, HEK293 cells, Fig. 3B
T5 construct: expressed in transfected cells; host or cells: HEK293
T5 sequence (Q07869 1-468): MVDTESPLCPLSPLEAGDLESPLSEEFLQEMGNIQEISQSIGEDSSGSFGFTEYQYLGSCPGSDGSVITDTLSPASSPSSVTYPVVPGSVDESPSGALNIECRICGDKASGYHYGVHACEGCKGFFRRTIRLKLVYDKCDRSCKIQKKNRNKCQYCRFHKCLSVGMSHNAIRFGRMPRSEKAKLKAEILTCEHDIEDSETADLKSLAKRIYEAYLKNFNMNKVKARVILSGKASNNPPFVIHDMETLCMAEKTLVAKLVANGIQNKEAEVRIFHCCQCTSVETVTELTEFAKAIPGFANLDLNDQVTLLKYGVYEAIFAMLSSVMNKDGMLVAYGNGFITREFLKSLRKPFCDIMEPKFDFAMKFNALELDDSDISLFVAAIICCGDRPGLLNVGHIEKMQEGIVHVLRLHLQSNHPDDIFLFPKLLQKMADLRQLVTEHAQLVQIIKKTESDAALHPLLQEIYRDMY
T5 sequence (Q15788 595-771 partner limits assumed): T4 sequence (Q15788 595-771 partner limits assumed)

VP16-PPARδ / GAL4-NCoR = target: T6, VP16-PPARδ / GAL4-NCoR (Homo sapiens, UniProt Q03181); assay: mammalian two-hybrid assay, VP16-PPARδ and corepressor NCoR; format: cell-based; conditions: 30 μM fatty acids, HEK293 cells, Fig. 3C
T6 construct: expressed in transfected cells; host or cells: HEK293
T6 sequence (Q03181 1-441): T3 sequence (Q03181 1-441)

VP16-PPARα / GAL4-NCoR = target: T7, VP16-PPARα / GAL4-NCoR (Homo sapiens, UniProt Q07869); assay: mammalian two-hybrid assay, VP16-PPARα and corepressor NCoR; format: cell-based; conditions: 30 μM fatty acids, HEK293 cells, Fig. 3D
T7 construct: expressed in transfected cells; host or cells: HEK293
T7 sequence (Q07869 1-468): T5 sequence (Q07869 1-468)

[1] = target: T8, recombinant human PPARδ LBD protein (Homo sapiens, UniProt Q03181); assay: [14C] DHA competitive ligand-binding assay; conditions: 100 nM [14C] DHA, 1 μM nonlabeled fatty acids, overnight at 4 °C
T8 construct: Human PPARδ LBD (140–442) construct was cloned into a pGEX-4T1 vector; GST (N, cleaved yes); made in house; host or cells: Escherichia coli BL21 (DE3) pLys
T8 sequence (Q03181 140-441 limits assumed): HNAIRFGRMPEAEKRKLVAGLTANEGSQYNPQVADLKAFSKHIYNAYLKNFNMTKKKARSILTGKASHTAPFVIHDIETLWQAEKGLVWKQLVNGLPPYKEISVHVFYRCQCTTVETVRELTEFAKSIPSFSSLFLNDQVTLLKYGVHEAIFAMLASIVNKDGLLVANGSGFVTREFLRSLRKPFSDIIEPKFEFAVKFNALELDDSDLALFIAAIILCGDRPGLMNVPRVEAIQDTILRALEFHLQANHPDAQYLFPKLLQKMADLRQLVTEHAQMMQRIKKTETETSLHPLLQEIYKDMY
Description: To identify the mechanism underlying the activation of PPARδ by GLA-derived fatty acids, we performed a [^14C] DHA competitive ligand-binding assay describing the displacement of ligands from receptors with recombinant human PPARδ LBD protein produced by a bacterial expression system (Figs. 4, A and B and S2). PPARδ LBD or glutathione-S-transferase (GST) recombinant protein was incubated with both [^14C] […] A competitive inhibition of [^14C] DHA binding was analyzed as a direct binding to PPARδ LBD (see Experimental procedures). […] DHA binding to PPARδ LBD competitively (Fig. 4C).
Human PPARδ LBD (140–442) construct was cloned into a pGEX-4T1 vector (GE Healthcare Life Sciences) at the restriction enzyme site of SmaI and XhoI. The protein was expressed in Eschericia coli BL21 (DE3) pLys cells (Novagen) as a C-terminal fusion to a GST tag with a thrombin cleavage site. A single colony was cultured in 2 ml of LB media supplemented with 20 μg/ml of ampicillin and 30 μg/ml of chloramphenicol at 37 °C and 200 rpm for 18 h. The preculture was then transferred to 1 l of LB media until the A600 reached 0.6 to 0.8. IPTG was added to produce a final concentration of 0.4 mM, and expression was continued at 24 °C and 150 rpm for 18 h. Cells were collected using centrifugation, and pellets were resuspended in lysis buffer comprising 50 mM Tris–HCl (pH 7.5), 150 mM NaCl, 5 mM DTT, 1 mM EDTA, and 10% glycerol before sonication was performed. The supernatant was then collected using centrifugation at 100,000g and 4 °C for 70 min, after which it was loaded onto GST Accept (nacalai tesque) and equilibrated using the lysis buffer. Subsequently, the column was washed using five column volumes of the lysis buffer and thrombin cleavage buffer comprising 20 mM Tri–HCl (pH 8.4), 150 mM NaCl, 2.5 mM CaCl2, and 1 mM DTT, respectively. The GST tag was removed via digestion using biotinylated thrombin (Merck) for 18 h at 4 °C. The biotinylated thrombin was removed using Dynabeads M-280 streptavidin (Veritas). The purity of the target proteins was verified using SDS-PAGE.
A ligand-binding assay was performed as described previously with minor modifications ([72]). Briefly, purified recombinant human PPARδ LBD protein was incubated with 100 nM ([…]) [^14C] DHA in GP buffer (137 mM NaCl, 8.1 mM Na2HPO4, 2.68 mM KCl, 1.47 mM KH2PO4, 1% sodium azide, and 0.1% gelatin) overnight at 4 °C with or without various competitors (1 μM), including DHA and GLA-derived fatty acids. Unbound ligands were removed by adsorption to 3% dextran-coated charcoal, and the supernatant was collected. The PPARδ-bound [^14C] DHA was measured using a scintillation counter (PerkinElmer).

[2] = system: human intestinal organoids; assay: PPARδ target gene mRNA expression in human intestinal organoids (RT-qPCR); format: cell-based; conditions: 1 μM GW1516 or 30 μM fatty acids for 24 h

Row | PPARδ activation (in words) (GAL4-PPARδ LBD) | ligand-induced activation of PPARα (in words) (GAL4-PPARα LBD) | Compound | other results
1 | effective | little or no effect | CC/C=C\CC(O)CC/C=C\CCCCCCCC(=O)O (centres unmarked) [αHYD] | –
2 | effective | little or no effect | CCCCCC(O)CC/C=C\CCCCCCCC(=O)O (centres unmarked) [HYD] | –
3 | – | little or no effect | CC/C=C\CC(O)CCC(O)CCCCCCCCC(=O)O (centres unmarked) [αHYE] | –
4 | effective | little or no effect | CCCCCC(O)CCC(O)CCCCCCCCC(=O)O (centres unmarked) [HYE] | –

Continued, compound first:

Row | Compound | PPARδ activation (in words) (GAL4-PPARδ LBD) | ligand-induced activation of PPARα (in words) (GAL4-PPARα LBD) | other results
5 | CCCCCC(=O)CC/C=C\CCCCCCCC(=O)O [KetoD] | effective | little or no effect | –
6 | CCCCCC(O)CCC(O)CC/C=C\CCCCC(=O)O (stereo not drawn) [γHYE, 10,13-dihydroxy-cis-6-octadecenoic acid] | more robust PPARδ activation than their original compound, GLA | – | transactivation of full-length PPARδ (in words) (full-length PPARδ): activated PPARδ potently; recruitment of coactivator SRC-1 to PPARδ (VP16-PPARδ / GAL4-SRC-1): induced coactivator-recruitment; recruitment of coactivator SRC-1 to PPARα (VP16-PPARα / GAL4-SRC-1): induced coactivator-recruitment; interaction between PPARδ and corepressor NCoR (VP16-PPARδ / GAL4-NCoR): reduced the interaction; interaction between PPARα and corepressor NCoR (VP16-PPARα / GAL4-NCoR): reduced the interaction; competitive displacement of [14C] DHA binding to PPARδ LBD [1]: displaced [^14C] DHA binding to PPARδ LBD competitively
7 | CC/C=C\CC(=O)CC/C=C\CCCCCCCC(=O)O [αKetoD] | – | little or no effect | –
8 | CC/C=C\C/C=C\C/C=C\C/C=C\C/C=C\C/C=C\CCC(=O)O [DHA, docosahexaenoic acid, reference compound] | – | – | EC50 (GAL4-PPARδ LBD; GAL4-PPARδ LBD, calculated from luciferase activity with Quest Graph EC50 Calculator): 44.6 µM; EC50 (GAL4-PPARα LBD; GAL4-PPARα LBD, calculated from luciferase activity with Quest Graph EC50 Calculator): 9.32 µM
9 | Cc1cc(SCc2sc(-c3ccc(C(F)(F)F)cc3)nc2C)ccc1OCC(=O)O [GW1516, reference compound] | – | – | expression of PPARδ target genes (CPT1A, HMGCS2, PDK4, ACSL1) [2]: upregulated the mRNA expression of target genes
